Entries after “also recorded” stand apart in the source; their conditions may differ.
Key:
SCC1 cells [1] = experiment: Matrigel-coated transwell invasion assay, SCC1 cells; assay type: cell-based, human; settings: for invasion of FANCD2sh-treated SCC1 cells: Matrigel-coated transwells, 22 hours
Experimental: (§1) FIGS. 23A and B show a pathway loss promotes invasion of squamous tumor cells. Indicated cells were treated with the indicated shRNA vectors and then plated in Matrigel-coated transwells. After 22 hours, invasive cells were quantified.
After 22 hours, invasive cells were quantified. Representative images are shown. Experiments were carried out in duplicate, and standard deviation calculated.
FA pathway loss promoted motility and invasion. To assess motility and invasiveness of FA-deficient cells, the Matrigel cell invasion assay was used. […] To rule out off-target effects of the lentivirus, an shRNA-resistant EGFP-FANCD2 construct was introduced. The EGFP-FANCD2 fusion protein was expressed in GFP+ cells (but not GFP− cells), and was sufficient to block invasion of FANCD2sh-treated SCC1 cells (FIG. 23B). Similarly, FANCA and FANCJ knockdown stimulated invasion in SCC1 cells (FIG. 23C). […] Gains in cellular motility were also observed for normal oral keratinocytes (NOKS): 1.3% of NTsh normal oral keratinocytes (NOKS) cells plated were able to migrate through matrigel. This invasion frequency doubled upon FANCD2 knockdown, highlighting potential relevance for FA loss for the motility of normal cells (data not shown).

SCC47 cells [2] = experiment: Matrigel-coated transwell invasion assay, SCC47 cells; assay type: cell-based, human; settings: 100 uM NB-DNJ, 48 hrs; NTsh, FANCD2sh, FANCJsh
Experimental: as §1
(§2) FIGS. 27I and J show NTsh-, FANCD2sh- and FANCJsh-treated SCC1 and SCC47 cells were cultured for 48 hrs in 100 uM NB-DNJ.
GM3 is the precursor of complex gangliosides (FIG. 27E), a key component of cell membranes, and enriched in lipid rafts (LRs). GM3 and its derivative GM1 localize to microdomains in apical epithelial membranes (68) and GM3 depletion was reported to blocked wound healing in diabetic mice (69). Further, GM3 was elevated in head and neck tumors (compared to adjacent normal tissue) (70) and in serum of HNSCC patients, and was predictive of tumor size and relapse (71). On the other hand, links between GM3 levels and FA have not yet been reported. Targeted analyses by UPLC-MS/MS in normal cutaneous (NIKS) and normal oral (NOKS) keratinocytes, as well as in UM-SCC1 cells verified GM3 regulation across the major carbohydrate component lengths (i.e., from d34:1 to d44:2) (FIG. 27F-H). […] To assess the functional significance of ganglioside accumulation in FA cells, the effect of a ganglioside synthesis inhibitor N-butyldeoxynojirimycin (NB-DNJ)72 was measured on invasion driven by FA pathway loss. […]

SCC1 cells [3] = experiment: Cell growth in culture, SCC1 cells; assay type: cell-based, human; settings: for growth of FANCD2sh-treated SCC1 cells: NSC23766: 48 hours culture
SCC47 cells [4] = experiment: Cell growth in culture, SCC47 cells; assay type: cell-based, human; settings: NB-DNJ
GM3 = GM3 levels by targeted MS in NB-DNJ treated cells; assay type: cell-based, human; settings: 100 uM NB-DNJ, 48 hrs; NTsh-, FANCD2sh- and FANCJsh-treated SCC1 and SCC47 cells
Experimental: as §2
GM3 is the precursor of complex gangliosides (FIG. 27E), a key component of cell membranes, and enriched in lipid rafts (LRs). GM3 and its derivative GM1 localize to microdomains in apical epithelial membranes (68) and GM3 depletion was reported to blocked wound healing in diabetic mice (69). Further, GM3 was elevated in head and neck tumors (compared to adjacent normal tissue) (70) and in serum of HNSCC patients, and was predictive of tumor size and relapse (71). On the other hand, links between GM3 levels and FA have not yet been reported. Targeted analyses by UPLC-MS/MS in normal cutaneous (NIKS) and normal oral (NOKS) keratinocytes, as well as in UM-SCC1 cells verified GM3 regulation across the major carbohydrate component lengths (i.e., from d34:1 to d44:2) (FIG. 27F-H). […] To assess the functional significance of ganglioside accumulation in FA cells, the effect of a ganglioside synthesis inhibitor N-butyldeoxynojirimycin (NB-DNJ)72 was measured on invasion driven by FA pathway loss. NTsh-, FANCD2sh- and FANCJsh-treated SCC1 and SCC47 cells were exposed to NB-DNJ (or vehicle), and subjected to Matrigel invasion assays (FIG. 23).

FA-deficient SCC = experiment: Invasion of FA-deficient SCC, rescue by supplementation; assay type: cell-based
SCC1 cells [5] = experiment: Phalloidin staining, quantification of intercellular projections in SCC1 cells; assay type: cell-based, human; settings: FANCD2sh- and FANCJsh SCC1 cells, phalloidin stain
Excerpt: (§3) Percentages of cells in G2/M are indicated. […] Images were taken at the same magnification and exposure. […] Errors bars represent standard deviation; ** p<0.001; *** p<0.0001 (ANOVA).

SCC1 cells [6] = experiment: Flow cytometry-based cell-cycle analysis after melphalan, SCC1 cells; set-up: species or system human; settings: FANCD2-deficient SCC1 cells compared to NTsh
Excerpt: as §3
FA pathway loss leads to cytoskeletal and membrane aberrations in HNSCC cells. A significant proportion of sporadic HNSCCs harbor somatic mutations in FA and FA-related genes (33). To test for biological effects of FA pathway loss, knockdown models of HNSCC were created using published lentiviral shRNA vectors (15, 41). First, the HPV-negative (UM-)SCC1 cell line was knocked down for FANCA, FANCD2, and FANCJ. Western blot analyses verified specific and efficient FA protein depletion (FIG. 22A). To verify that FANCD2 depletion induced classical FA phenotypes, DNA crosslinker sensitivity was quantified. […] This was similar to FA lymphoblasts and fibroblasts that also respond to melphalan with G2/M cell-cycle arrest (42-43). FANCA- and FANCJ-deficient SCC1 cells responded similarly, as did UMSCC6 and UMSCC47 HNSCC cell lines depleted for FA proteins (data not shown). Thus, FA knockdown in HPV-positive and -negative […] cells induced the classic FA DNA-crosslinker sensitivity phenotype.

pDNA-PKcs = target: T1, pDNA-PKcs (Homo sapiens, UniProt P78527); experiment: Western blot of pDNA-PKcs in SCC1 cells after bleomycin pulse; assay type: cell-based; settings: 10 uM NU7026; 30-minute bleomycin pulse; FANCD2sh-, FANCJsh- and control (NTsh) SCC1 cells
T1 construct: Western blot analysis of NTsh-, FANCD2sh- and FANCJsh-treated SCC1 cells that were subjected to a 30-minute pulse of bleomycin; endogenous in cells; host or cells: UM-SCC1 (SCC1) HNSCC cells carrying NTsh, FANCD2sh or FANCJsh lentiviral shRNA
Excerpt: DNA-PK/Rac1 signaling occurred in response to FA pathway loss and was required for cytoskeletal re-organization and invasion. […] These defects are accompanied, under some circumstances, by a corresponding increase in the activity of error-prone non-homologous end joining (NHEJ) pathway components (27-28). Repair by NHEJ requires activation of the catalytic subunit of DNA-dependent protein kinase (DNA-PKcs) and subsequent autophosphorylation on serine […] (pDNA-PKcs). The inventors first determined whether DNA-PKcs signaling was activated and involved in FA-associated invasion. FANCD2sh- and FANCJsh-treatment of SCC1 cells stimulated pDNA-PKcs.

Rac1 = experiment: Rac1-GTP pulldown assay in SCC1 cells; assay type: cell-based, human
Excerpt: Members of the small GTPase Rho, Rac and CDC42 family of signaling molecules were key players in normal and transformed cell morphology, adhesion, motility, and invasion (46). […] Because Rac1 activation is reported to produce intercellular projections (47-48) similar to the ones noted in FA-deficient cells (FIG. 22E), the inventors carried out Rac1-GTP pull-downs to determine whether Rac1 is activated by FA pathway loss; FANCJsh SCC1 cells were used, since pDNA-PK activation in these cells was robust (FIG. 24A). […] To examine the requirement for Rac1 in cytoskeletal re-organization and invasion of FA-deficient cells, the specific Rac1 small molecule inhibitor NSC23766 was used (49-50). […] Thus, FA pathway loss leads to downstream activation of pDNA-PK and Rac1, and both are required for cytoskeletal rearrangements and invasion.

NeuACα2-3Galβ1-4Glcβ1-1ceramide [GM3]
invasion of SCC1 cells with GM3 in cell media (SCC1 cells [1]; GM3 50 uM): doubled the invasion
SCC1 invasion on GM3 addition to culture media (SCC1 cells [1]; particularly in FA-proficient cells, data not shown): stimulated SCC1 invasion

CCCCN1C[C@H](O)[C@@H](O)[C@H](O)[C@H]1CO [NB-DNJ, N-butyldeoxynojirimycin]
invasion driven by FA loss, SCC1 cells (SCC1 cells [1]; 100 uM NB-DNJ, 48 hrs, NTsh, FANCD2sh, FANCJsh): selectively inhibited invasion driven by FA loss
invasion driven by FA loss, SCC47 cells (SCC47 cells [2]): selectively inhibited invasion driven by FA loss
growth of SCC1 cells (SCC1 cells [3]; NB-DNJ): did not affect the growth
growth of SCC47 cells (SCC47 cells [4]): did not affect the growth
GM3 levels (GM3): reduced GM3 levels; also recorded: successfully repressed GM3 levels

O=c1c(O)c(-c2ccc(O)c(O)c2)oc2cc(O)cc(O)c12 [quercetin]
invasion of FA-deficient SCC (FA-deficient SCC): rescued

CCN(CC)CCCC(C)Nc1nc(C)cc(Nc2ccc3nc(C)cc(N)c3c2)n1 (centres unmarked) [NSC23766]
invasion of FANCD2sh-treated SCC1 cells (SCC1 cells [1]): suppressed cell invasion
invasion of control cells (SCC1 cells [1]; NTsh control SCC1 cells): did affect invasion of control cells
growth of FANCD2sh-treated SCC1 cells (SCC1 cells [3]): did not appear to affect growth
number of long intercellular projections (SCC1 cells [5]): reduced the number of long intercellular projections

CC(C)CCC[C@@H](C)[C@H]1CC[C@H]2[C@@H]3CC=C4C[C@@H](O)CC[C@]4(C)[C@H]3CC[C@]12C [cholesterol]
invasion of FA-deficient SCC (FA-deficient SCC): rescued

Oc1ccc([C@H]2COc3cc(O)ccc3C2)cc1 [equol]
invasion of FA-deficient SCC (FA-deficient SCC): rescued

N[C@@H](Cc1ccc(N(CCCl)CCCl)cc1)C(=O)O [melphalan]
proportion of cells in G2/M after melphalan (SCC1 cells [6]): increased proportion of cells in G2/M

O=c1cc(N2CCOCC2)oc2c1ccc1ccccc12 [NU7026]
pDNA-PKcs level (Western blot) (pDNA-PKcs): undetectable pDNA-PKcs
invasion of FANCD2sh-treated SCC1 cells (SCC1 cells [1]): suppressed invasion
growth of FANCD2sh-treated SCC1 cells (SCC1 cells [3]): did not appear to affect growth
active Rac1 (Rac1-GTP) in FA-deficient cells (Rac1; FANCJsh SCC1 cells): significantly lowered active Rac1
Rac1 activity in control cells (Rac1; NTsh control SCC1 cells): did not affect Rac1 activity

Source: patent US10857211B2, “Genomic instability markers in Fanconi anemia” (Children's Hospital Medical Center, priority 2014, dated 2020)
